Results taken from patent US8276663B2, “Methods for reducing biological load in subterranean formations” (Halliburton Energy Services Inc., priority 2010, dated 2012).

Key:
Assay type in all cases: physicochemical
[1] = Compatibility of CMHPG fluid (SIROCCO) and TTPC, FIG. 1
Procedure: First, a treatment fluid containing 35 pptg (pounds per thousand gallons) carboxymethyl hydroxypropyl guar (CMHPG) fluid (SIROCCO, commercially available from Halliburton Energy Services, Inc. of Duncan, Okla.) with a pH of approximately 10.1 at 250° F. was tested and found to be compatible with TTPC up to about 250 ppm, as shown in FIG. 1. Not shown in […] is the starting viscosity of each of the tested fluids, which was as follows: 117.1 for the control, 140.1 for the fluid containing 125 ppm TTPC, 116.2 for the fluid containing 250 ppm TTPC, and 147.4 for the fluid containing 375 pp, TTPC.

[2] = Compatibility of HPG-based fluid (HYBOR H) and TTPC, FIG. 2
From the text: Not shown in FIG. 2 is the starting viscosity of each of the tested fluids, which was as follows: 160.2 for the control, 172.9 for the fluid containing 125 ppm TTPC, 185.5 for the fluid containing 250 ppm TTPC, and 188.7 for the fluid containing 375 pp, TTPC.

[3] = Compatibility of guar-based fluid (HYBOR G) and TTPC, FIG. 3
From the text: The starting viscosity of each of the tested fluids, was as follows: 138.1 for the control, 141.3 for the fluid containing 125 ppm TTPC, 125.7 for the fluid containing 250 ppm TTPC, and 128.8 for the fluid containing 375 pp, TTPC.

[4] = Compatibility of guar-based fluid (DELTA 140) and TTPC, FIG. 4
From the text: The starting viscosity of each of the tested fluids, was as follows: 824.2 for the control, 263.7 for the fluid containing 125 ppm TTPC, 567.3 for the fluid containing 250 ppm TTPC, and 721.6 for the fluid containing 375 pp, TTPC.

[5] = Compatibility of guar-based fluid (DELTA 200) and TTPC, FIG. 5
From the text: The starting viscosity of each of the tested fluids, was as follows: 77.0 for the control, 251.9 for the fluid containing 125 ppm TTPC, 59.7 for the fluid containing 250 ppm TTPC, and 96.8 for the fluid containing 375 pp, TTPC.

[6] = Compatibility of CMHPG-based fluid (pHaser Frac) and TTPC, FIG. 6
From the text: The starting viscosity of each of the tested fluids, was as follows: 719.1 for the control, 1182.63 for the fluid containing 30 ppm TTPC, 1067.5 for the fluid containing 60 ppm TTPC, and 1015.8 for the fluid containing 125 pp, TTPC.

CCCCCCCCCCCCCC[P+](CCCC)(CCCC)CCCC.[Cl-] [TTPC, tri-n-butyl tetradecyl phosphonium chloride]
starting viscosity of fluid ([1]; 125 ppm TTPC): 140.1 | starting viscosity of fluid ([1]; 250 ppm TTPC): 116.2 | starting viscosity of fluid ([1]; 375 pp, TTPC): 147.4 | TTPC concentration up to which fluid is compatible ([1]; pH approximately 10.1, 250° F.): up to 250 ppm | TTPC concentration up to which fluid is compatible ([2]; 1 gptg GasPerm 1000, 4% KCl, 225° F.): up to 375 ppm | starting viscosity of fluid ([2]; 125 ppm TTPC): 172.9 | starting viscosity of fluid ([2]; 250 ppm TTPC): 185.5 | starting viscosity of fluid ([2]; 375 pp, TTPC): 188.7 | TTPC concentration up to which fluid is compatible ([3]; 1 gptg GasPerm 1000, 5 pptg sodium thiosulfate, 225° F.): up to 375 ppm | starting viscosity of fluid ([3]; 125 ppm TTPC): 141.3 | starting viscosity of fluid ([3]; 250 ppm TTPC): 125.7 | starting viscosity of fluid ([3]; 375 pp, TTPC): 128.8 | TTPC concentration up to which fluid is compatible ([4]; DELTA 140, 2 gptg tetramethylammonium chloride, 3 gptg BC-140, 140° F.): up to 375 ppm | starting viscosity of fluid ([4]; DELTA 140, 125 ppm TTPC): 263.7 | starting viscosity of fluid ([4]; DELTA 140, 250 ppm TTPC): 567.3 | starting viscosity of fluid ([4]; DELTA 140, 375 pp, TTPC): 721.6 | TTPC concentration up to which fluid is compatible ([5]; DELTA 200, 2 gptg Clayfix II, 2.5 gptg BC-200 UC, 204° F.): up to 375 ppm | starting viscosity of fluid ([5]; DELTA 200, 125 ppm TTPC): 251.9 | starting viscosity of fluid ([5]; DELTA 200, 250 ppm TTPC): 59.7 | starting viscosity of fluid ([5]; DELTA 200, 375 pp, TTPC): 96.8 | TTPC concentration up to which fluid is compatible ([6]; 2 gptg tetramethylammonium chloride, 1.1 gptg pH buffer, 1.4 gptg CL-37, 225° F.): up to 125 ppm | starting viscosity of fluid ([6]; 30 ppm TTPC): 1182.63 | starting viscosity of fluid ([6]; 60 ppm TTPC): 1067.5 | starting viscosity of fluid ([6]; 125 pp, TTPC): 1015.8
